Results from PubChem BioAssay (NCI).
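In this assay, cells in 96-well plates receive the compound at five concentrations for 48 hours. Endpoints are linearly interpolated between the surrounding concentrations. GI50 marks 50% less growth. TGI marks complete inhibition of growth.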

Key:
Assay in all cases: NCI anticancer screen, dose series, 48 h
A498 renal = tested on: A498 renal
CCRF-CEM leukemia = tested on: CCRF-CEM leukemia
HCT-15 colon = tested on: HCT-15 colon
HOP-62 NSCLC = tested on: HOP-62 NSCLC
KM12 colon = tested on: KM12 colon
MALME-3M melanoma = tested on: MALME-3M melanoma
SW-620 colon = tested on: SW-620 colon
T-47D breast = tested on: T-47D breast
U251 CNS = tested on: U251 CNS
SNB-19 CNS = tested on: SNB-19 CNS

| SMILES | GI50 (A498 renal) [µM] | TGI (A498 renal) [µM] | GI50 (CCRF-CEM leukemia) [µM] | TGI (CCRF-CEM leukemia) [µM] | GI50 (HCT-15 colon) [µM] | TGI (HCT-15 colon) [µM] | GI50 (HOP-62 NSCLC) [µM] | TGI (HOP-62 NSCLC) [µM] | GI50 (KM12 colon) [µM] | TGI (KM12 colon) [µM] | GI50 (MALME-3M melanoma) [µM] | TGI (MALME-3M melanoma) [µM] | GI50 (SW-620 colon) [µM] | TGI (SW-620 colon) [µM] | GI50 (T-47D breast) [µM] | TGI (T-47D breast) [µM] | GI50 (U251 CNS) [µM] | TGI (U251 CNS) [µM] | GI50 (SNB-19 CNS) [µM] | TGI (SNB-19 CNS) [µM] |
| --- | --- | --- | --- | --- | --- | --- | --- | --- | --- | --- | --- | --- | --- | --- | --- | --- | --- | --- | --- | --- |
| COc1cc2nc(NC3CCC3)nc(NC3CCN(C(C)C)CC3)c2cc1OC | 1.24 | 7.05 | 2.21 | 5.11 | 2.16 | 5.15 | 2.6 | 11 | 4.01 | 14.7 | 1.76 | 3.23 | 2.49 | 7.02 | 1.95 | 4.11 | 1.95 | 4.52 |  |  |
| Cc1ccc(CNc2ccc(Cl)cc2NCc2ccc(C)c(O)c2)cc1O | 8.55 | 16.1 | 5.02 | 17.2 | 5.66 | 12.2 | 8.85 | 16.8 | 6.52 | 13.8 | 6.2 | 14.7 | 8.22 | 16.8 | 7.4 | 20.1 | 7.15 | 14.2 | 7.69 | 15.3 |
| CC[C@@]12CC(C(=O)OC)=C3Nc4ccccc4[C@@]34CCN(C[C@H]3O[C@H]31)[C@@H]24 | 27.5 | > 100 | 33.9 | > 100 | 33.5 | > 100 | 94.9 | > 100 | 41.3 | > 100 | 30.5 | > 100 | 35.9 | > 100 | 27.5 | > 100 | 43 | > 100 | 16.1 | 30.7 |
| CC1(C)CC[C@]2(C(=O)O)CC[C@]3(C)C(=CC[C@@H]4[C@@]5(C)C/C(=C/c6cccnc6)[C@H](O)C(C)(C)[C@@H]5CC[C@]43C)[C@@H]2C1 | > 100 | > 100 | 2.88 | 18.5 | 3.85 | 25.6 | 13 | > 100 | 4.58 | 32.7 | 13.4 | 36.2 | 5.34 | > 100 | 9.89 | > 100 | 5.59 | 32.7 | 5.55 | > 100 |
| CCn1nc(C#Cc2c(C)ccc3c(Nc4ccc(Cl)cc4)nccc23)c2c(N)ncnc21 | 2.54 | 8.65 | 3.31 | > 100 | 3.46 | > 100 | 4.01 | 78 | 3.79 | > 100 | 2.1 | 7.09 | 2.99 | > 100 | 5.48 | > 100 | 4.43 | > 100 | 4.93 | > 100 |
| N=C(N)c1ccc(-c2ccc(-c3cccs3)s2)cc1F | 0.156 | 0.621 | 1.58 | 3.46 | 0.629 | 2.09 | 1.61 | 3.07 | 1.01 | 2.38 | 2.28 | 4.48 | 0.506 | 1.94 | 1.49 | 3.48 | 1.33 | 2.8 | 1.77 | 3.65 |
